Results taken from US4731109A, “Herbicidal 2-haloacetanilides” (Monsanto Company, priority 1982, dated 1988).
Where two headings read alike, the source gives them in different places.

Columns and labels:
[1] = Toxicology studies, eye irritation; conditions: in vivo
Description: Toxicology studies on the compound of Example 1 have indicated the compound to be quite safe. […] No special handling procedures beyond normal precautions are deemed necessary.

[2] = system: annual grasses, annual broadleafs and perennials; experiment: Other tests, preemergence selective control or suppression of weeds; type: in vivo
Giant foxtail = experiment: Field tests, selectivity; type: in vivo
Description: (§1) In the discussion and tables of data below, reference is made to herbicide application rates symbolized as "GR15 " and "GR85 "; these rates are given in kilograms per hectare (kg/ha) which are convertible into pounds per acre (lbs/A) by dividing the kg/ha rate by 1.12.
(§2) A further guide to the effectiveness of a chemical as a selective herbicide is the "selectivity factor" ("SF") for a herbicide in given crops and weeds. The selectivity factor is a measure of the relative degree of crop safety and weed injury and is expressed in terms of the GR15 /GR85 ratio, i.e., the GR15 rate for the crop divided by the GR85 rate for the weed, both rates in kg/ha (lb/A). In the tables below, selectivity factors are shown in parenthesis following the GR85 rate for each weed; the symbol "NS" indicates "non-selective". Marginal or undetermined selectivity is indicated by a dash (--).
(§3) It will be understood by those skilled in the art that not all of the named weeds are selectively controlled in all of the named crops under all conditions of climate, soil, moisture and/or herbicide application modes. Selectivity data for control of the foregoing weeds in the crops soybeans, corn, cotton and peanuts from a plurality of field tests in various locations under various conditions of soil, moisture, etc., is shown collectively in Tables VIII-XI, respectively.

Yellow foxtail = experiment: Field tests, selectivity; type: in vivo; conditions: in soybeans, 6 WAT
Description: as §1, §2, §3

Morningglory = experiment: Field tests, selectivity; type: in vivo; conditions: in corn
Description: as §1, §2, §3

cotton = experiment: Field tests, selectivity; type: in vivo
Description: as §1, §2, §3

[3] = system: crabgrass (smooth and hairy); experiment: Field tests, selectivity; type: in vivo; conditions: in cotton, 7 WAT
Description: as §1, §2, §3

prickly sida = experiment: Field tests, selectivity; type: in vivo; conditions: in cotton
Description: as §1, §2, §3

Cocklebur = experiment: Field tests, selectivity; type: in vivo; conditions: in corn
Description: as §1, §2, §3

goosegrass = experiment: Field tests, selectivity; type: in vivo; conditions: in cotton, P.P.I., 7 WAT
Description: as §1, §2, §3

purslane = experiment: Field tests, selectivity; type: in vivo; conditions: in cotton, S.A., 9 WAT
Description: as §1, §2, §3

Lambsquarters = experiment: Field tests, selectivity; type: in vivo; conditions: in soybeans, 6 WAT
Description: as §1, §2, §3

soybeans = experiment: Field tests, selectivity; type: in vivo
Description: as §1, §2, §3

peanuts = experiment: Field preemergence activity in peanuts, surface applied; type: in vivo; conditions: pre-emergence, read-out: Percent Inhibition; for inhibition at 2240 g/ha: 2.24 Kg/Ha; for inhibition at 3360 g/ha: 3.36 Kg/Ha; for inhibition at 4480 g/ha: 4.48 Kg/Ha
Description: as §3
(§4) In Table XI is presented preemergence activity data for the compound of Example 1 against three resistant annual weeds, i.e., Texas panicum, bristly starbur and Florida pusley in peanuts for periods up to 12 WAT. The data in Table XI represent the average of three replicate runs in sandy loam soil having 1.3% organic matter, 79.2% sand and 10% clay; herbicide surface applied.

Florida Pusley = experiment: as above; type: in vivo; conditions: for inhibition at 2240 g/ha: 2.24 Kg/Ha; for inhibition at 4480 g/ha: 4.48 Kg/Ha
Description: as §3, §4

Bristly Starbur = experiment: as above; type: in vivo; conditions: for inhibition at 2240 g/ha / inhibition at 3360 g/ha / inhibition at 4480 g/ha: pre-emergence, read-out: Percent Inhibition; for inhibition at 2240 g/ha: 2.24 Kg/Ha; for inhibition at 3360 g/ha: 3.36 Kg/Ha; for inhibition at 4480 g/ha: 4.48 Kg/Ha
Description: as §3, §4

Texas panicum = experiment: as above; type: in vivo; conditions: pre-emergence, read-out: Percent Inhibition; for inhibition at 2240 g/ha: 2.24 Kg/Ha; for inhibition at 3360 g/ha: 3.36 Kg/Ha; for inhibition at 4480 g/ha: 4.48 Kg/Ha
Description: as §3, §4

[4] = pre-emergence, 4 WAT, read-out: Percent Inhibition
[5] = pre-emergence, 8 WAT, read-out: Percent Inhibition

With CCOCN(C(=O)CCl)c1c(C)cccc1C(F)(F)F [Example 1, N-(ethoxymethyl)-2'-trifluoromethyl-6'-methyl-2-chloroacetanilide] the eye irritation [1] was “slight eye irritation”, the “preemergence selective control or suppression of weeds” value ([2]; in soybeans, corn, cotton, peanuts, beans, potatoes, tree fruits, turf grasses) was “effectiveness for premergence selective control or suppression” and the “competition from seedling johnsongrass, Texas panicum, sandbur, shattercane, Florida beggarweed, lambsquarters, ragweed, prickley sida and smartweed” value ([2]; in vivo) was “reduces competition”. For the same compound, the GR85 (Giant foxtail; in corn, P.P.I., 6 WAT) was 2.0 kg/ha, the “S.F. (GR15/GR85)” value (Giant foxtail; in corn, P.P.I., 6 WAT) was 2.5 and the GR85 (Giant foxtail; in corn, P.P.I., 6.5 WAT) was 4.5 kg/ha. For the same compound, the “S.F. (GR15/GR85)” value (Giant foxtail; in corn, P.P.I., 6.5 WAT) was 1.5, the GR85 (Giant foxtail; in corn, S.A., 6 WAT) was less than 1.1 kg/ha and the “S.F. (GR15/GR85)” value (Giant foxtail; in corn, S.A., 6 WAT) was 4. For the same compound, the GR85 (Giant foxtail; in corn, S.A., 6.5 WAT) was 8.4 kg/ha, the GR85 (Giant foxtail; in soybeans, P.P.I., 3 WAT) was less than 1.1 kg/ha and the “S.F. (GR15/GR85)” value (Giant foxtail; in soybeans, P.P.I., 3 WAT) was greater than 4. The GR85 (Giant foxtail; in soybeans, P.P.I., 5 WAT) was less than 1.1 kg/ha, the “S.F. (GR15/GR85)” value (Giant foxtail; in soybeans, P.P.I., 5 WAT) was greater than 4 and the GR85 (Giant foxtail; in soybeans, S.A., 3 WAT) was less than 1.1 kg/ha. For the same compound, the “S.F. (GR15/GR85)” value (Giant foxtail; in soybeans, S.A., 3 WAT) was greater than 4, the GR85 (Yellow foxtail; P.P.I.) was less than 1.12 kg/ha and the “S.F. (GR15/GR85)” value (Yellow foxtail; P.P.I.) was greater than 1. The GR85 (Yellow foxtail; S.A.) was 1.1 kg/ha, the “S.F. (GR15/GR85)” value (Yellow foxtail; S.A.) was 2 and the GR85 (Morningglory; P.P.I., 3 WAT) was greater than 4.5 kg/ha. It also gave a GR85 (Morningglory; P.P.I., 6 WAT) greater than 4.5 kg/ha, a GR85 (Morningglory; S.A., 3 WAT) greater than 4.5 kg/ha and a GR85 (Morningglory; S.A., 6 WAT) greater than 4.5 kg/ha. The suppression (Morningglory; Table IX) was “suppression of these weeds was exhibited”, the GR15 (cotton; Cotton/Crabgrass, P.P.I., 7 WAT) was 0.84 kg/ha and the GR15 (cotton; Cotton/Crabgrass, S.A., 7 WAT) was 1.4 kg/ha. It also gave a GR15 (cotton; Cotton/Goosegrass, P.P.I., 7 WAT) of 0.84 kg/ha, a GR15 (cotton; Cotton/Prickly sida, P.P.I., 6 WAT) of 3.4 kg/ha and a GR15 (cotton; Cotton/Prickly sida, S.A., 6 WAT) of 3.6 kg/ha. For the same compound, the GR15 (cotton; Cotton/Prickly sida, S.A., 9 WAT) was 3.4 kg/ha, the GR15 (cotton; Cotton/Purple nutsedge, P.P.I., 6 WAT) was 3.4 kg/ha and the GR15 (cotton; Cotton/Purple nutsedge, S.A., 6 WAT) was 3.6 kg/ha. For the same compound, the GR15 (cotton; Cotton/Purple nutsedge, S.A., 9 WAT) was 3.4 kg/ha, the GR15 (cotton; Cotton/Purslane, S.A., 9 WAT) was 3.4 kg/ha and the GR85 ([3]; P.P.I.) was 1.1 kg/ha. For the same compound, the GR85 ([3]; S.A.) was less than 1.1 kg/ha, the “S.F. (GR15/GR85)” value ([3]; S.A.) was greater than 1 and the GR85 (prickly sida; P.P.I., 6 WAT) was 4.8 kg/ha. For the same compound, the GR85 (prickly sida; S.A., 6 WAT) was 3.1 kg/ha, the “S.F. (GR15/GR85)” value (prickly sida; S.A., 6 WAT) was 1 and the GR85 (prickly sida; S.A., 9 WAT) was 4.8 kg/ha. For the same compound, the GR85 (Cocklebur; P.P.I., 3 WAT) was greater than 4.5 kg/ha, the GR85 (Cocklebur; P.P.I., 6 WAT) was greater than 4.5 kg/ha and the GR85 (Cocklebur; S.A., 3 WAT) was greater than 4.5 kg/ha. The GR85 (Cocklebur; S.A., 6 WAT) was greater than 4.5 kg/ha, the suppression (Cocklebur; Table IX) was “suppression of these weeds was exhibited” and the GR85 (goosegrass) was less than 1.1 kg/ha. For the same compound, the control (goosegrass) was “marginal or indeterminate”, the GR85 (purslane) was 2.0 kg/ha and the “S.F. (GR15/GR85)” value (purslane) was 1.5. The GR85 (Lambsquarters; P.P.I.) was 2.8 kg/ha, the GR85 (Lambsquarters; S.A.) was 2.5 kg/ha and the “S.F. (GR15/GR85)” value (Lambsquarters; S.A.) was 1. The GR15 (soybeans; Soybeans/Giant foxtail, P.P.I., 3 WAT) was greater than 4.5 kg/ha, the GR15 (soybeans; Soybeans/Giant foxtail, P.P.I., 5 WAT) was greater than 4.5 kg/ha and the GR15 (soybeans; Soybeans/Giant foxtail, S.A., 3 WAT) was greater than 4.5 kg/ha. It also gave a GR15 (soybeans; Soybeans/Lambsquarters, P.P.I., 6 WAT) of 1.4 kg/ha, a GR15 (soybeans; Soybeans/Lambsquarters, S.A., 6 WAT) of 2.5 kg/ha and a GR15 (soybeans; Soybeans/Pennsylvania Smartweed, P.P.I., 8 WAT) of 4.5 kg/ha. The GR15 (soybeans; Soybeans/Yellow foxtail, P.P.I., 6 WAT) was 1.4 kg/ha, the GR15 (soybeans; Soybeans/Yellow foxtail, S.A., 6 WAT) was 2.5 kg/ha and the inhibition at 2240 g/ha (peanuts; 4 WAT) was 5%. The inhibition at 2240 g/ha (peanuts; 8 WAT) was 0%, the inhibition at 2240 g/ha (peanuts; 12 WAT) was 0% and the inhibition at 3360 g/ha (peanuts; 4 WAT) was 10%. It also gave an inhibition at 3360 g/ha (peanuts; 8 WAT) of 0%, an inhibition at 3360 g/ha (peanuts; 12 WAT) of 0% and an inhibition at 4480 g/ha (peanuts; 4 WAT) of 17%. The inhibition at 4480 g/ha (peanuts; 8 WAT) was 7%, the inhibition at 4480 g/ha (peanuts; 12 WAT) was 0% and the “control” value (Florida Pusley; 4.48 kg/ha, 12 WAT) was 95%. It also gave an inhibition at 2240 g/ha (Florida Pusley; [4]) of 0%, an inhibition at 2240 g/ha (Florida Pusley; [5]) of 90% and an inhibition at 3360 g/ha (Florida Pusley; pre-emergence, 3.36 Kg/Ha, 4 WAT, read-out: Percent Inhibition) of 0%. The inhibition at 4480 g/ha (Florida Pusley; [4]) was 0%, the inhibition at 4480 g/ha (Florida Pusley; [5]) was 95% and the inhibition at 4480 g/ha (Florida Pusley; pre-emergence, 12 WAT, read-out: Percent Inhibition) was 95%. The “control” value (Bristly Starbur; 4.48 kg/ha, 12 WAT) was “complete control”, the inhibition at 2240 g/ha (Bristly Starbur; 8 WAT) was 78% and the inhibition at 2240 g/ha (Bristly Starbur; 12 WAT) was 40%. For the same compound, the inhibition at 3360 g/ha (Bristly Starbur; 8 WAT) was 85%, the inhibition at 3360 g/ha (Bristly Starbur; 12 WAT) was 60% and the inhibition at 4480 g/ha (Bristly Starbur; 8 WAT) was 95%. For the same compound, the inhibition at 4480 g/ha (Bristly Starbur; 12 WAT) was 100%, the inhibition at 2240 g/ha (Texas panicum; 4 WAT) was 50% and the inhibition at 2240 g/ha (Texas panicum; 8 WAT) was 67%. It also gave an inhibition at 2240 g/ha (Texas panicum; 12 WAT) of 40%, an inhibition at 3360 g/ha (Texas panicum; 4 WAT) of 68% and an inhibition at 3360 g/ha (Texas panicum; 8 WAT) of 63%. It also gave an inhibition at 3360 g/ha (Texas panicum; 12 WAT) of 55%, an inhibition at 4480 g/ha (Texas panicum; 4 WAT) of 85% and an inhibition at 4480 g/ha (Texas panicum; 8 WAT) of 88%. It also gave an inhibition at 4480 g/ha (Texas panicum; 12 WAT) of 78%.
